Assay results: ChEMBL document CHEMBL5137108, “Calofolic Acid-A from Calophyllum scriblitifolium Bark Has Vasorelaxant Activity via Indirect PKA Activation Caused by PI-3 Kinase Inhibition in Rat Vascular Smooth Muscle Cells” (J Nat Prod, 2022)
Calls of active or inactive are those of the source. The rule behind the calls is not given here.

What was measured:
[1] = system: VSMC; assay: Cytotoxicity against Wistar rat VSMCs assessed as reduction in cell viability at 50 uM incubated for 48 hrs by MTT assay; type: toxicity, cell-based
[2] = system: VSMC; assay: Inhibition of phenylephrine-induced MLC phosphorylation at Ser19 residue in Wistar rat VSMCs at 50 uM preincubated for 60 mins followed by phenylephrine stimulation and measured upto 30 mins by Western blot analysis; type: cell-based; conditions: time 90.0 min
[3] = biological target: T1, Protein phosphatase 1 regulatory subunit 12A (Rattus norvegicus) (UniProt Q10728); assay: Activation of MYTP1 phosphorylation at Ser668 residue in Wistar rat VSMCs at 50 uM incubated for 60 mins by Western blot analysis; type: cell-based; conditions: VSMC, filed as activator
T1 sequence (whole entry): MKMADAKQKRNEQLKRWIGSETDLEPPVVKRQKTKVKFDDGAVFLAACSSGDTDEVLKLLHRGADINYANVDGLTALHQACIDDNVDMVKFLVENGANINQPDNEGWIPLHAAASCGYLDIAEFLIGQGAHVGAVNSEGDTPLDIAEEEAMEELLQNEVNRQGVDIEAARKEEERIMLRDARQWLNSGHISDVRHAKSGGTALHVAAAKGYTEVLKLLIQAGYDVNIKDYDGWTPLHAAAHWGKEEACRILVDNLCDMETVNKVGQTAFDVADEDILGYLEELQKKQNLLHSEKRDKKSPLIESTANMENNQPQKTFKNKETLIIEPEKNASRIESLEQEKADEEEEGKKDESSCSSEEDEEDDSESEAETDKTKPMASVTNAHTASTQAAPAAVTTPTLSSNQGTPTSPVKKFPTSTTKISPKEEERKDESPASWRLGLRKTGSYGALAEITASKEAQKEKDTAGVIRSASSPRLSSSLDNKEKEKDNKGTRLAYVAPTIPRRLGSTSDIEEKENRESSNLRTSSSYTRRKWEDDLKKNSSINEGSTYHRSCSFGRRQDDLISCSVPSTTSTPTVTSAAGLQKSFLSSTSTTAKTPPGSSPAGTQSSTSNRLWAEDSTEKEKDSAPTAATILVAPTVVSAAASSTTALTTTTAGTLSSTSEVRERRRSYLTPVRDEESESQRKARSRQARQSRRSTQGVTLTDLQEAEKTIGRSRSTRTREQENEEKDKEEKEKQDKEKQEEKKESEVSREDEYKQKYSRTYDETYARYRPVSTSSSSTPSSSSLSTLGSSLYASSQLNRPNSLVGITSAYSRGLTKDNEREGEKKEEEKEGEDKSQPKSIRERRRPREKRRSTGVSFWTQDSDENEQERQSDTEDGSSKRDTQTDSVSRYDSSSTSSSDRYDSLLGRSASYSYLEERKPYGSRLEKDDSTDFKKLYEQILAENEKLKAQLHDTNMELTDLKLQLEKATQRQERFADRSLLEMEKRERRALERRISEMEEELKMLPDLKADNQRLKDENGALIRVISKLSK

[4] = biological target: T1, Protein phosphatase 1 regulatory subunit 12A (Rattus norvegicus); assay: Activation of MYTP1 phosphorylation at Ser668 residue in phenylephrine-stimulated Wistar rat VSMCs at 50 uM preincubated for 60 mins followed by phenylephrine stimulation and measured upto 30 mins by Western blot analysis; type: cell-based; conditions: VSMC, filed as activator, time 90.0 min
[5] = biological target: T1, Protein phosphatase 1 regulatory subunit 12A (Rattus norvegicus); assay: Activation of MYTP1 phosphorylation at Ser695 residue in phenylephrine-stimulated Wistar rat VSMCs at 50 uM preincubated for 60 mins followed by phenylephrine stimulation and measured upto 30 mins by Western blot analysis; type: cell-based; conditions: VSMC, filed as activator, time 90.0 min
[6] = system: VSMC; assay: Activation of HSP20 phosphorylation in isoproterenol-induced Wistar rat VSMCs at 50 uM preincubated for 60 mins followed by ISO stimulation and measured upto 30 mins by Western blot analysis; type: cell-based; conditions: filed as activator, time 90.0 min
[7] = system: VSMC; assay: Activation of PKA substrate phosphorylation in Wistar rat VSMCs at 50 uM incubated for 60 mins by Western blot analysis; type: cell-based; conditions: filed as activator
[8] = system: VSMC; assay: Activation of HSP90 phosphorylation in Wistar rat VSMCs at 50 uM incubated for 60 mins by Western blot analysis; type: cell-based; conditions: filed as activator
[9] = system: VSMC; assay: Activation of PKA substrate phosphorylation in isoproterenol-induced Wistar rat VSMCs at 50 uM preincubated for 60 mins followed by ISO stimulation and measured upto 30 mins by Western blot analysis; type: cell-based; conditions: filed as activator, time 90.0 min
[10] = system: VSMC; assay: Activation of PKA substrate phosphorylation in Wistar rat VSMCs incubated for 60 mins by Western blot analysis; type: cell-based; conditions: filed as activator, dose 5-50 µM, DDE = dose-dependent effect
[11] = system: B16-F10; assay: Activation of PKA substrate phosphorylation in mouse B16-F10 cells incubated for 60 mins by Western blot analysis; type: cell-based; conditions: filed as activator
[12] = biological target: cAMP-dependent protein kinase (PKA) (Homo sapiens) (UniProt P22694+P17612+P22612); assay: Activation of PKA substrate phosphorylation in HEK293 cells incubated for 60 mins by Western blot analysis; type: cell-based; conditions: filed as activator
[13] = system: VSMC; assay: Activation of PKA substrate phosphorylation in isoproterenol-induced Wistar rat VSMCs at 10 uM preincubated for 60 mins followed by isoproterenol stimulation and measured upto 20 mins by Western blot analysis; type: cell-based; conditions: filed as activator, time 80.0 min
[14] = system: VSMC; assay: Activation of PKA substrate phosphorylation in Wistar rat VSMCs at 10 uM incubated for 60 mins in the presence of LY294002 by Western blot analysis; type: cell-based; conditions: filed as activator
[15] = system: VSMC; assay: Inhibition of isoproterenol-induced AKT phosphorylation at Thr308 residue in Wistar rat VSMCs at 50 uM preincubated for 60 mins followed by ISO stimulation and measured upto 30 mins by Western blot analysis; type: cell-based; conditions: time 90.0 min
[16] = system: VSMC; assay: Inhibition of isoproterenol-induced AKT phosphorylation at Ser473 residue in Wistar rat VSMCs at 50 uM preincubated for 60 mins followed by ISO stimulation and measured upto 30 mins by Western blot analysis; type: cell-based; conditions: time 90.0 min
[17] = Inhibition of recombinant human full length PI3K p110alpha/[…] alpha activity assessed as PIP3 generation using PI(4,5)P2 (PIP2) as substrate incubated for 3 hrs by competitive binding based colorimetric analysis
[18] = system: VSMC; assay: Activation of PKA in isoproterenol-induced Wistar rat VSMCs assessed as fold increase in intracellular cAMP concentration at 50 uM measured 20 mins after ISO stimulation relative to isoproterenol; type: cell-based; conditions: filed as activator
[19] = system: VSMC; assay: Activation of PKA substrate phosphorylation in Wistar rat VSMCs at 100 uM incubated for 60 mins by Western blot analysis; type: cell-based; conditions: filed as activator
[20] = system: VSMC; assay: Activation of PKA substrate phosphorylation in isoproterenol-induced Wistar rat VSMCs at 100 uM preincubated for 60 mins followed by ISO stimulation and measured upto 30 mins by Western blot analysis; type: cell-based; conditions: filed as activator, time 90.0 min
[21] = system: VSMC; assay: Activation of PKA in isoproterenol-induced Wistar rat VSMCs assessed as increase in intracellular cAMP concentration at 100 uM measured 20 mins after ISO stimulation; type: cell-based; conditions: filed as activator
[22] = system: VSMC; assay: Inhibition of isoproterenol-induced PKA substrate phosphorylation in Wistar rat VSMCs at 10 uM preincubated for 60 mins followed by ISO stimulation and measured upto 30 mins by Western blot analysis; type: cell-based; conditions: time 90.0 min
[23] = system: VSMC; assay: Activation of PKA substrate phosphorylation in Wistar rat VSMCs at 10 uM incubated for 60 mins in the presence of IBMX by Western blot analysis; type: cell-based; conditions: filed as activator
[24] = system: VSMC; assay: Inhibition of AKT phosphorylation at Ser473 residue in Wistar rat VSMCs at 10 uM measured upto 60 mins by Western blot analysis; type: cell-based
[25] = system: VSMC; assay: Activation of PKA substrate phosphorylation in Wistar rat VSMCs at 10 uM incubated for 60 mins by Western blot analysis; type: cell-based; conditions: filed as activator
[26] = system: VSMC; assay: Activation of PKA in isoproterenol-induced Wistar rat VSMCs assessed as fold increase in intracellular cAMP concentration at 10 uM measured 20 mins after ISO stimulation; type: cell-based; conditions: filed as activator

With CC[C@H](CC(=O)O)c1c2c(c(O)c3c1O[C@H](C)[C@H](C)C3=O)C=CC(C)(C)O2 the Activity [1] was 80%, the inhibition [2] was “Active” and the Activity [3] was “Active”. The Activity [4] was “Active”, the Activity [5] was “Active” and the Activity [6] was “Active”. The Activity [7] was “Active”, the Activity [8] was “Active” and the Activity [9] was “Active”. For the same compound, the Activity [10] was “Dde”, the Activity [11] was “Active” and the Activity [12] was “Active”. The Activity [13] was “Active”, the Activity [14] was “Active” and the inhibition [15] was “Active”. The inhibition [16] was “Active”, the IC50 [17] was 6 µM and the fold change (FC) [18] was 2.5.

With CC(C)Cn1c(=O)n(C)c(=O)c2nc[nH]c21 the Activity [19] was “Active”, the Activity [20] was “Active” and the Activity [13] was “Active”. For the same compound, the Activity [21] was “Active”.

With O=S(=O)(NCCNC/C=C/c1ccc(Br)cc1)c1cccc2cnccc12 the inhibition [22] was “Active”.

For O=c1cc(N2CCOCC2)oc2c(-c3ccccc3)cccc12, the Activity [23] was “Active”, the Activity [13] was “Active” and the inhibition [24] was “Active”. The Activity [25] was “Active” and the fold change (FC) [26] was 2.
